We go through 4 compounds from patent US4241063A, “Purine derivatives and their use as bronchodilators” (Bristol-Myers Company, priority 1979, dated 1980).

≈ marks a conversion by molar mass, not a printed value. Where two headings read alike, the source gives them in different places.

The subject of data set [1] is Arterial blood pressure (ABP). In words: In vivo hypotensive activity: arterial blood pressure (ABP) in anesthetized guinea pig. How it is done:
(§1) The trachea of anesthetized guinea pig was cannulated and the ITP recorded on a polygraph under artificial ventilation. Arterial blood pressure (ABP; reflecting hypotensive activity) was also measured during the experiment. Either intravenous or intraduodenal routes of administration are used. […] The ratio of hypotensive ED20 /bronchodilating ED50 reflects an assessment of the separation of desirable bronchodilator activity from undesirable cardiovascular (hypotensive) effect in the compounds.

Data set [2] relates to Tracheal chains of guinea pig. In words: In vitro bronchodilator activity (guinea pig tracheal chain relaxation, Magnus method). It is filed as cell-based. As to conditions: Cavia porcellus, read-out: EC50 (concentration producing a relaxation which is 50% of the maximum response to 0.1 mcg./ml. of isoproterenol), relative to maximum response to 0.1 mcg./ml. isoproterenol. On the procedure:
Tracheal chains of guinea pig were prepared by the method of A. Akcasu, Arch. Int. Pharmacodyn. […] The response to each test compound was recorded by the Magnus method and expressed as a percentage of the maximum response obtained with 0.1 mcg./ml. of isoproterenol prior to each experiment.

In data set [3] the test system is intratracheal pressure (ITP) in the guinea pig. Put plainly: In vivo bronchodilator activity: decrease in intratracheal pressure (ITP) in anesthetized guinea pig. The conditions noted are these: for ED50: Cavia porcellus, read-out: ITP ED50 (dose resulting in a 50% decrease in intratracheal pressure). On the procedure: as §1

`Cn1c(=O)c2[nH]cnc2n(C)c1=O` [Aminophylline, reference compound]: in data set [1] (intravenous), the “ABP ED20 (dose which reduces arterial blood pressure by 20%)” value amounted to 1.4 mg/kg.

In the case of `Nc1nc(Cl)nc2c1ncn2C1CCCCO1` (centres unmarked) [Example 1, 2-Chloro-9-(tetrahydropyran-2-yl)-9H-adenine], the EC50 in data set [2] was found to be 0.45 µg/mL (≈ 1.77 µM). The median effective dose (ED50) in data set [3] (intravenous) came to 0.23 mg/kg. Besides, the “ABP ED20 (dose which reduces arterial blood pressure by 20%)” value in data set [1] (intravenous) was over 1 mg/kg.

`COc1nc(N)c2ncn(C3CCCCO3)c2n1` (centres unmarked) [Example 2, 2-Methoxy-9-(tetrahydropyran-2-yl)-9H-adenine]: the EC50 in data set [2] is over 3 µg/mL. For the same compound, the ED50 in data set [3] (intravenous) was determined as 2.2 mg/kg. Further, in data set [1] (intravenous), the “ABP ED20 (dose which reduces arterial blood pressure by 20%)” value was over 1 mg/kg.

As to `CCCOc1nc(N)c2ncn(C3CCCCO3)c2n1` (centres unmarked) [Example 3, 2-n-Propoxy-9-(tetrahydropyran-2-yl)-9H-adenine], the EC50 in data set [2] was found to be 0.17 µg/mL (≈ 0.613 µM). Further, the results for the 50% effective dose (ED50) in data set [3] (intraduodenal) and in data set [3] (intravenous) were 1.4 mg/kg and 0.26 mg/kg, respectively. Also, the “Ratio ABP/ITP (hypotensive ED20/bronchodilating ED50)” value in data set [3] (intraduodenal) was found to be 9.6; in data set [3] (intravenous) it was 7.3. Further, the “ABP ED20 (dose which reduces arterial blood pressure by 20%)” value in data set [1] (intraduodenal) amounted to 13.5 mg/kg; in data set [1] (intravenous) it was 1.9 mg/kg.
